The target of this assay is T1, recombinant human mPGES-1 (Homo sapiens, UniProt O14684).
T1 construct: made in house; host or cells: Rosetta E. coli (microsomal/membrane fraction)
T1 sequence (O14684 1-152): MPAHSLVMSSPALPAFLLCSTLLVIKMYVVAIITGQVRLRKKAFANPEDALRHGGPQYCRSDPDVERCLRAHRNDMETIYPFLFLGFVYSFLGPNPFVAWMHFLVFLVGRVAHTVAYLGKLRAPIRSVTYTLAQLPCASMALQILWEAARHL
Nature of the assay: mPGES-1 inhibition, HTRF detection of PGE2. The class given is biochemical. As for the experimental part:
Microsomes from Rosetta E. coli bacteria expressing recombinant human mPGES-1 is dissolved in 0.1 M KPi pH 7.4 buffer containing 2.5 mM GSH. 50 μl of the enzyme is subsequently dispensed in a 384-well plate. 0.5 μl of the inhibitor dissolved in DMSO at is thereafter added to each well and incubated for 25 minutes at room temperature. Subsequently, 2 μl of PGH2 dissolved in an appropriate solvent is added to each well and after one minute the acidified stop solution containing FeCl2 is added. 4 μl of the total volume is transferred to a separate plate and diluted 750-fold in two separate steps before HTRF detection of PGE2.
The HTRf detection is performed by the use of a commercially available kit from CisBio essentially according to the manufacturer's protocol. Briefly, 10 μl of the diluted sample is transferred to a white 384-well plate. 5 μl of d2 and 5 μl Eu3+-Cryptate labeled anti-PGE2 is added to each well containing samples by the use of a Multidrop. The plate is covered with a plastic self-adhesive film, centrifuged at 1200 rpm for 1 minute and subsequently stored at +4° C. over night.
After over night incubation the fluorescence is measured by the use of an appropriate microplate reader. The fluorescence of europium cryptate, and d2 are measured using the following excitation and emission wavelength, europium cryptate: λmax^ex=307 nm, λmax^em=620 nm and d2: λmax^ex=620 nm, λmax^em=665 nm), respectively. The extent of the specific FRET is measured as a ratio of the emission intensity at 665 nm vs. that at 620 nm. A standard curve using synthetic PGE2 is used to quantify the amount of PGE2 in unknown samples.
For orientation: In TR-FRET formats the signal depends on donor and acceptor labels being close together.
For the compound `COCCOc1nc2c(cc1C(=O)Nc1ccc(Br)cc1)nc(Nc1c(Cl)cncc1Cl)n2C` [Example 812, 2-(3,5-Dichloro-pyridin-4-ylamino)-5-(2-methoxy-ethoxy)-N-(4-bromo-phenyl)-3-methyl-3H-imidazo[4,5-b]pyridine-6-carboxamide], the inhibition at 10 µM amounted to 97%.

Regarding `Cn1c(Nc2c(Cl)cncc2Cl)nc2cc(C(=O)NCc3ccccc3C(F)(F)F)c(OCC(F)F)nc21` [Example 839, 2-(3,5-Dichloro-pyridin-4-ylamino)-5-(2,2-difluoro-ethoxy)-N-(2-trifluoromethyl-benzyl)-3-methyl-3H-imidazo[4,5-b]pyridine-6-carboxamide], the inhibition at 10 µM was determined as 98%.

Regarding `CC(C)[C@H]1CC[C@H](NC(=O)c2cnc3[nH]c(Nc4c(Cl)cccc4Cl)nc3c2)CC1` [Example 394, 2-(2,6-Dichlorophenylamino)-N-((1r,4r)-4-isopropylcyclohexyl)-3H-imidazo[4,5-b]pyridine-6-carboxamide], the inhibition at 10 µM came out at 100%.

As for `CC(C)n1c(Nc2c(Cl)cccc2Cl)nc2cc(C(=O)NC3CCC(C)(C)CC3)cnc21` [Example 505, 2-(2,6-Dichlorophenylamino)-N-(4,4-dimethylcyclohexyl)-3-isopropyl-3H-imidazo[4,5-b]pyridine-6-carboxamide], the inhibition at 10 µM was 100%.

For `Cn1c(Nc2c(Cl)cncc2Cl)nc2cc(C(=O)NCc3ncccc3C(F)(F)F)c(OCC(F)(F)F)nc21` [Example 851, 2-(3,5-Dichloro-pyridin-4-ylamino)-5-(2,2,2-trifluoro-ethoxy)-N-((3-trifluoromethyl-pyridin-2-yl)-methyl)-3-methyl-3H-imidazo[4,5-b]pyridine-6-carboxamide], the inhibition at 10 µM came out at 98%.

As to `O=C(N[C@H]1CC[C@H](C(F)(F)F)CC1)c1cc2nc(Nc3c(Cl)cc(F)cc3Cl)[nH]c2nc1OCC(F)F` [Example 823, 2-(2,6-Dichloro-4-fluoro-phenylamino)-5-(2,2-difluoro-ethoxy)-N-(trans-4-trifluoromethyl-cyclohexyl)-3H-imidazo[4,5-b]pyridine-6-carboxamide], the inhibition at 10 µM was 91%.

`Cn1c(Nc2c(Cl)cnc(Cl)c2Cl)nc2cc(C(=O)N[C@H]3CC[C@H](C(F)(F)F)CC3)c(OCC(F)F)nc21` [Example 779, 2-(2,3,5-Trichloro-pyridin-4-yl-amino)-5-(2,2-difluoro-ethoxy)-N-(trans-4-trifluoromethyl-cyclohexyl)-3-methyl-3H-imidazo[4,5-b]pyridine-6-carboxamide]: the inhibition at 1 µM was 96%.

In the case of `O=C(NCC(F)(F)C(F)(F)C(F)(F)C(F)(F)F)c1cc2nc(Nc3c(Cl)cncc3Cl)[nH]c2nc1OCC(F)F` [Example 807, 2-(3,5-Dichloro-pyridin-4-ylamino)-5-(2,2-difluoro-ethoxy)-N-(2,2,3,3,4,4,5,5,5-nonafluoro-pentyl)-3H-imidazo[4,5-b]pyridine-6-carboxamide], the inhibition at 10 µM was 90%.

Take `Cn1c(Nc2c(Cl)cc(F)cc2Cl)nc2cc(C(=O)N[C@H]3CC[C@H](C(F)(F)F)CC3)c(OCCF)nc21` [Example 870, 2-(2,6-Dichloro-4-fluoro-phenylamino)-5-(2-fluoro-ethoxy)-N-(trans-4-trifluoromethyl-cyclohexyl)-3-methyl-3H-imidazo[4,5-b]pyridine-6-carboxamide]: the inhibition at 10 µM amounted to 100%.

Take `Cn1c(Nc2c(Cl)cncc2Cl)nc2cc(C(=O)Nc3cc(C(F)(F)F)ccn3)c(OCC(F)F)nc21` [Example 836, 2-(3,5-Dichloro-pyridin-4-ylamino)-5-(2,2-difluoro-ethoxy)-N-(4-trifluoromethyl-pyridin-2-yl)-3-methyl-3H-imidazo[4,5-b]pyridine-6-carboxamide]: the inhibition at 10 µM is 100%.

Take `O=C(N[C@H]1CC[C@H](C(F)(F)F)CC1)c1cc2nc(Nc3c(Cl)cc(F)cc3Cl)[nH]c2nc1OCC(F)(F)F` [Example 827, 2-(2,6-Dichloro-4-fluoro-phenylamino)-5-(2,2,2-trifluoro-ethoxy)-N-(trans-4-trifluoromethyl-cyclohexyl)-3H-imidazo[4,5-b]pyridine-6-carboxamide]: the inhibition at 10 µM turned out to be 100%.

One may read the inhibition as the share of the control response that was lost under treatment.
